Experimental data from patent publication US5925769A, “Acetylenic 1,5-diarylpyrazoles as antiinflammatory agents” (Ortho Pharmaceutical, Corp., priority 1998, dated 1999).

Biological target: T1, Sheep seminal vesicle (SSV) cyclooxygenase (Ovis aries, UniProt P05979)
T1 construct: Sheep seminal vesicle (SSV) cyclooxygenase (95% pure); purchased Biomol (Plymouth Meeting, PA); host or cells: sheep seminal vesicle
T1 sequence (P05979 25-600): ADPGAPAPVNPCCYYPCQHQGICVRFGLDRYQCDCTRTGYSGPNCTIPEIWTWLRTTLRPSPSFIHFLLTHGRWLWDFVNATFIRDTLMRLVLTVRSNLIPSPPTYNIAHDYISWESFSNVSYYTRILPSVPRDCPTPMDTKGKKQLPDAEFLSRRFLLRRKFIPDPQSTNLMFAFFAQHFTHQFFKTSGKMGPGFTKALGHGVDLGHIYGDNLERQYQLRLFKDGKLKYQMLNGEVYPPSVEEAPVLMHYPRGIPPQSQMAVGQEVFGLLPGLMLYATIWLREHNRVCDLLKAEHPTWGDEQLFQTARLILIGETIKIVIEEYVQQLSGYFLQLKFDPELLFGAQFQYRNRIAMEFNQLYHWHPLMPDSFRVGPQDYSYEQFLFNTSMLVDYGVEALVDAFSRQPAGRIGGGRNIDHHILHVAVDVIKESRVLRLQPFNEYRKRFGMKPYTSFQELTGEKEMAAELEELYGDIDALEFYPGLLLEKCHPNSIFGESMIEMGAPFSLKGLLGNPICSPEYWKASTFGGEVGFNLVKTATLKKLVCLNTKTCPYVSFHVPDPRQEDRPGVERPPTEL
Assay: Procedure I: inhibition of sheep seminal vesicle (SSV) cyclooxygenase
Assay type: biochemical
Conditions: SSV cyclooxygenase; read-out: Proc. I IC50
Outline: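 Turnover of [1-14C]-arachidonic acid by SSV cyclooxygenase ran 20 min after a 5 min preincubation at 37° C with test compound. Products (PGD2, PGE2, etc.) were extracted, resolved by TLC and quantified by radio-imaging; inhibition came from comparing curve areas with and without compound.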

IC50: 1020 nM
Structure (SMILES): COc1ccc(-n2nc(C#CCN(O)C(N)=O)cc2-c2ccc(C)cc2)cc1 [Cpd 1, N-Hydroxy-N-(1(1-(4-methoxyphenyl)-5-(4-methylphenyl)pyrazol-3-yl)-1-propyn-3-yl)urea]
